Source: patent publication US20080194695A1, “Pharmaceutical Composition Containing Sibutramine Free Base and Manufacturing Method Thereof” (priority 2005, published 2008)
Where a name gives a salt, the structure may show the parent alone. Read-outs that look alike come from different tables or passages of the source.

Key:
[1] = Hygroscopicity and storage stability of the drug substance as stated in the background art; conditions: during storage
[2] = Dissolution test, paddle method of the Korean Pharmacopoeia, 50 rpm, capsules with sinker, HPLC; type: physicochemical
Protocol: Dissolution tests were performed with examples 1˜6, comparative examples 1˜2, sibutramine free base itself and Reductil™ (Abbott Korea Limited) containing 10[…] of sibutramine hydrochloride monohydrate. To keep dissolution test condition similar, the contents of sibutramine in examples and comparative examples were evaluated with the below HPLC analysis condition and then the predetermined amount of examples, comparative examples and sibutramine free base itself were filled in one capsule to make capsules having 8.37[…] of sibutramine free base. These capsules were used in dissolution tests.
500[…] of pH 4.5 buffered solution [2.99 g of Sodium acetate trihydrate and 1.66[…] of acetic acid anhydrous were dissolved in 1 L of distilled water and then pH of the solution was adjusted to pH 4.5±0.05] and 500[…] of pH 6.8 buffered solution [118[…] of 0.2 mol/L NaOH solution was added to 250[…] of 0.2 mol/L […], and then distilled water was added to make the solution 1000[…]] were used as dissolution media. Paddle method of dissolution test of the Korean Pharmacopoeia was used and paddle was rotated at 50 rpm. Dissolution test was performed for 45 minutes and sinker was also used.
For HPLC analysis, mixture (350:640:10) of acetonitrile, water and tetrahydrofuran was used as mobile phase and ion pair reagent PIC B5 (Low UV) was added to the mobile phase to adjust retention time of peak, and then pH was adjusted to 3.0 with phosphoric acid. Wavelength for determination was 229[…] and flow rate was 1.5[…]/min and injection volume was 20[…].
Results were shown as percent (%) of sibutramine dissolved into dissolution media from test samples compared to the total amount of sibutramine contained in each sample.

[3] = Solubility and dissolution as stated in the background art; conditions: distilled water and pH 6.8 buffered solution
[4] = background art; cited from earlier work
[5] = as said in U.S. Pat. No. 6,900,245; cited from earlier work

| SMILES | storage stability in words [1] | percent of sibutramine dissolved into dissolution media ([2]; distilled water, 15 min) [%] | percent of sibutramine dissolved into dissolution media ([2]; distilled water, 30 min) [%] | percent of sibutramine dissolved into dissolution media ([2]; distilled water, 45 min) [%] | percent of sibutramine dissolved into dissolution media ([2]; pH 4.5 buffered solution, 15 min) [%] | percent of sibutramine dissolved into dissolution media ([2]; pH 4.5 buffered solution, 30 min) [%] | percent of sibutramine dissolved into dissolution media ([2]; pH 4.5 buffered solution, 45 min) [%] | dissolution in words ([2]; pH 6.8 buffered solution) | percent of sibutramine dissolved into dissolution media ([2]; pH 6.8 buffered solution, 15 min) [%] | percent of sibutramine dissolved into dissolution media ([2]; pH 6.8 buffered solution, 30 min) [%] | percent of sibutramine dissolved into dissolution media ([2]; pH 6.8 buffered solution, 45 min) [%] | solubility in words [3] | hygroscopicity in words [4] | solubility in words [5] |
| --- | --- | --- | --- | --- | --- | --- | --- | --- | --- | --- | --- | --- | --- | --- |
| CC(C)CC(N(C)C)C1(c2ccc(Cl)cc2)CCC1 (stereo not drawn) [Sibutramine free base, N,N-dimethyl-1-[1-(4-chlorophenyl)-cyclobutyl]-3-methylbutylamine] | may become sticky gel phase during storage | 0 | 0 | 0 | 62 | 80 | 88 | did not practically dissolve | 0 | 0 | 0 | does not almost dissolve |  |  |
| CC(C)CC(N(C)C)C1(c2ccc(Cl)cc2)CCC1.Cl (stereo not drawn) [sibutramine hydrochloride anhydrous] |  |  |  |  |  |  |  |  |  |  |  |  | highly hygroscopic |  |
| CC(C)CC(N(C)C)C1(c2ccc(Cl)cc2)CCC1 (stereo not drawn) [sibutramine hydrochloride monohydrate] |  |  |  |  |  |  |  |  |  |  |  |  | non-hygroscopic | insufficient |
